{
  "source": "patent US20110130390A1",
  "about": "“Use of COX-2 Inhibitors for the Treatment of Schizophrenia, Delusional Disorders, Affective Disorders, Autism or Tic Disorders” (priority 2001, published 2011)",
  "key": {"DBA/2Ola mice": {"test_system": "DBA/2Ola mice", "assay": "Forced swim test", "format": "in vivo", "description": "Various behavioral test paradigms have been developed for evaluating the antidepressant properties of novel drugs in animals. One of the most reliable and specific paradigm is the forced swim test which has been successfully used to determine the effectiveness of antidepressants, evaluate new pharmaceutical compounds and validate animal models of depression (Porsolt et al. (1977) Arch. Int. Pharmacodym. 229:327-336; Porsolt (2000) Rev. Neurosci. 11:53-58; Rénńric et al. (2002)Behav. Brain Res. 136:521-532; Page et al. (2003) Psychopharmacology 165:194-201; Kelliher et al. (2003) Psychoneuroendocrinology 28:332-347). The test consists of placing a mouse for a period of 5 minutes into a glass cylinder containing a water depth of at least 15 cm. Under such circumstances, a mouse cannot touch the bottom of the cylinder and is thus forced to swim. Time, latency and frequency of struggling/swimming versus floating are scored as behavioral parameters. Floating (i.e. movements made only for keeping balance and breath) can be interpreted as a depression-like behavior that reflects either a failure of persistent escape-directed behavior (i.e. behavioral despair) or the development of passive behavior that disengages the animal from active forms of coping with stress stimuli. By contrast, increased struggling (i.e. vigorous attempts to escape) and swimming indicates active coping behavior and can be interpreted as an opposite to depression-like behavior.\nThe antidepressant activity of rofecoxib was assessed in animals according to the forced swim test. Briefly, rofecoxib was given orally by gavage to mice either in a single acute administration of 10 mg or in a repetitive chronic administration of 4 mg per day (2 mg at 9:00 in the morning, 2 mg at 18:00 in the evening) for 28 days. Control animals received a negative control consisting of water only. The forced swim test was performed 4 hour after the last administration of rofecoxib. […] All observed results were confirmed statistically using the one-way ANOVA test.\n(§1) The antidepressant activity of valdecoxib was assessed in DBA/2Ola mice according to the forced swim test. Briefly, chronic administration of valdecoxib was performed by oral gavage for 28 days at a concentration of 4 mg per day (2 mg at 9:00 in the morning, 2 mg at 18:00 in the evening) and 20 mg per day (10 mg at 9:00 in the morning, 10 mg at 18:00 in the evening). Control animals received a placebo consisting of water only. The behavior of individual animals was assessed using the forced swim test 24 hours after the last administration of valdecoxib. A pre-exposure of 5 minutes to the test was done 4 hours after the last administration of valdecoxib. All observed results were confirmed statistically using the one-way ANOVA test.\nas §1, with “etoricoxib” for “valdecoxib”, “DBA/201a” for “DBA/2Ola”, “etoricoxib” for “chronic administration of valdecoxib”, “chronically administered to mice” for “performed”, “etoricoxib.” for “valdecoxib.”\nThe antidepressant activity of the COX-2 inhibitor Cimicoxib was assessed in DBA/2Ola mice using the forced swim test. Briefly, chronic administration of cimicoxib was performed by oral gavage to mice for 28 days at a concentration of 2 or 10 mg per kg bodyweight per day (1 or 5 mg at 9:00 in the morning, 1 or 5 mg at 18:00 in the evening). Control animals received a placebo consisting of water only. […]"}, "[1]": {"format": "in vivo, human", "conditions": "FIG. 4"}, "depressed patients [2]": {"test_system": "depressed patients", "assay": "Drop-outs and side-effects in the celecoxib add-on to reboxetine trial", "conditions": "celecoxib 400 mg/day add-on to reboxetine, n = 20"}, "depressed patients [3]": {"test_system": "depressed patients", "assay": "Hamilton-Depression scale, 17-item version (HamD), celecoxib add-on to reboxetine trial", "format": "in vivo, human", "conditions": "400 mg/day add-on to reboxetine, 6 weeks; ANOVA, Greenhouse-Geisser-corrected F=3.220; df 2.434; p=0.035; FIG. 10", "procedure": "The psychopathology of the patients was assessed by raters, who had undergone a training program, using the Hamilton-Depression scale, 17-item version (HamD), 24 Assessment of psychopathology and other examinations were performed at weekly intervals.\nFor statistics, analysis of variance was used for the HamD scale. The degrees of freedom for the within-subjects comparisons were corrected for deviance from sphericity (Greenhouse-Geisser). Post-hoc t tests were used for the weekly comparison of HamD scores. An intent to treat analysis was performed using the “last observation carried forward” (LOCF) procedure."}, "[4]": {"conditions": "chronic oral gavage 28 days, 2 or 10 mg per kg bodyweight per day, test 4 hours after the last administration, FIG. 9"}, "[5]": {"conditions": "chronic oral gavage 28 days, 4 mg per day and 20 mg per day, test 24 hours after the last administration"}, "[6]": {"conditions": "chronic oral 4 mg per day for 28 days, test 4 hour after the last administration, FIG. 6"}, "[7]": {"conditions": "single acute oral administration of 10 mg, test 4 hour after administration, FIG. 6"}},
  "data": [
    {"compound": "COc1ccc(-c2c(Cl)ncn2-c2ccc(S(N)(=O)=O)cc2)cc1F", "note": "[cimicoxib]", "values": [
      {"measurement": "floating time", "setting": "DBA/2Ola mice; [4]", "result": "decrease"},
      {"measurement": "struggling or swimming times", "setting": "DBA/2Ola mice; [4]", "result": "statistically significant increase"}
    ]},
    {"compound": "Cc1nc2n(c(=O)c1CCN1CCC(c3noc4cc(F)ccc34)CC1)CCCC2", "note": "[risperidone]", "values": [
      {"measurement": "differences in the plasma levels between risperidone-celecoxib and risperidone-placebo treatment", "setting": "[1]", "result": "without statistical significance"}
    ]},
    {"compound": "Cc1nc2n(c(=O)c1CCN1CCC(c3noc4cc(F)ccc34)CC1)CCCC2O", "note": "(centres unmarked) [9-OH-risperidone]", "values": [
      {"measurement": "differences in the plasma levels between risperidone-celecoxib and risperidone-placebo treatment", "setting": "[1]", "result": "without statistical significance"}
    ]},
    {"compound": "etoricoxib", "values": [
      {"measurement": "floating time", "setting": "DBA/2Ola mice; [5]", "result": "decreasing"},
      {"measurement": "struggling or swimming times", "setting": "DBA/2Ola mice; [5]", "result": "statistically increased or showed a tendency to increase"}
    ]},
    {"compound": "Cc1ccc(-c2cc(C(F)(F)F)nn2-c2ccc(S(N)(=O)=O)cc2)cc1", "note": "[celecoxib]", "values": [
      {"measurement": "cardiovascular events or side-effects, clinically and by ECG surveillance", "setting": "depressed patients [2]", "result": "no cardiovascular events or side-effects were observed"},
      {"measurement": "patients excluded or refusing further treatment due to a lack of therapeutic efficacy", "setting": "depressed patients [2]", "result": "Five"},
      {"measurement": "comparison of HamD scores during therapy with celecoxib or placebo", "setting": "depressed patients [3]", "result": "advantage of celecoxib-group"},
      {"measurement": "PANSS items lack of contact, emotional isolation, passive-apathic isolation, social withdrawal, depression, motor retardation", "setting": "schizophrenic patients; analysis of items discriminating good celecoxib-responders from the placebo group", "result": "therapeutic effects"},
      {"measurement": "PANSS items subsumed under the label agitation", "setting": "schizophrenic patients; factor analysis, not seen with placebo", "result": "good therapeutic response"}
    ]},
    {"compound": "Cc1onc(-c2ccccc2)c1-c1ccc(S(N)(=O)=O)cc1", "note": "[valdecoxib]", "values": [
      {"measurement": "floating time", "setting": "DBA/2Ola mice; [5]", "result": "decreasing"},
      {"measurement": "struggling or swimming times", "setting": "DBA/2Ola mice; [5]", "result": "statistically increased"}
    ]},
    {"compound": "rofecoxib", "values": [
      {"measurement": "floating time", "setting": "DBA/2Ola mice; [6]", "result": "decreasing"},
      {"measurement": "struggling or swimming times", "setting": "DBA/2Ola mice; [6]", "result": "statistically increased"},
      {"measurement": "floating time", "setting": "DBA/2Ola mice; [7]", "result": "decreasing"},
      {"measurement": "struggling or swimming times", "setting": "DBA/2Ola mice; [7]", "result": "statistically increased"}
    ]}
  ]
}
